{"source": "patent US12589161B2", "about": "“PEGylated synthetic KL4 peptide, compositions and methods thereof” (THE UNIVERSITY OF HONG KONG, priority 2019, dated 2026)", "key": {"[1]": {"test_system": "A549 cells", "experiment": "GAPDH siRNA transfection on A549 cells (Western blot)", "format": "cell-based, human", "method": "A549 cells were seeded in 6-well plates at a density of 1.5×10^5 cells per well one day before transfection. The cells were transfected with peptide/siRNA complexes containing 50 pmol of GAPDH siRNA or negative control siRNA per well (50 nM). The complexes were prepared in OptiMEM I reduced serum medium at 10:1, 15:1 and 20:1 ratios (w/w). Lipofectamine 2000 was used as control. The complexes were added to the cells and incubated for 4 h at 5% CO2, 37° C. before being washed with PBS. The transfection medium was removed and replaced with serum supplemented cell culture medium. At 72 h post-transfection, the cells were washed and lysed with cell lysis buffer. Western blotting assay was performed to analyze the level of GAPDH protein. The GAPDH expression was analyzed by densitometry of Western Blots using Image J software. The remaining GAPDH expression was the density of the GAPDH band of positive control (normalized with beta-actin of the corresponding sample) divided by the GAPDH band of negative control (normalized with the beta actin band of the corresponding sample).\n(§1) A549 cells, BEAS-2B and Calu-3 cells were seeded in six-well plates at a density of 1.6×10^5 cells per well, 2×10^5 cells per well and 3×10^5 cells per well, respectively, one to two days before transfection. The cells were transfected with peptide/siRNA complexes at 5:1 to 20:1 ratio (w/w) containing GAPDH siRNA or negative control siRNA (6 to 100 nM) in OptiMEM I reduced serum medium. Lipofectamine 2000 was used for comparison. After 5 h of incubation, the cells were washed and replaced with serum supplemented cell culture medium. At 72 h post-transfection, the cells were washed and lysed with cell lysis buffer. Western blotting assay was performed to analyze the level of GAPDH protein as previously described. The GAPDH expression was analyzed by densitometry of Western blots using ImageJ software (Version 1.52). The GAPDH expression was normalized with the expression of […]-actin of the corresponding sample. The remaining GAPDH expression was the normalized GAPDH expression of positive control divided by the normalized GAPDH expression of negative control."}, "[2]": {"experiment": "Charge ratio of peptide to siRNA at 10:1 weight ratio", "excerpt": "This is partly because the uncharged PEG chains reduced the effective charge ratio between cationic KL4 and siRNA [77]. The charge ratios of KL4, PEG6KL4, PEG12KL4 and PEG24KL4 to siRNA at 10:1 weight ratio are 6.1 to 1, 5.5 to 1, 4.9 to 1 and 4.2 to 1, respectively. […] The molecular weight of the PEG used in this study, which is below 1,200 Da, is relatively low compared with others where PEG of 2,000 to 5,000 Da was often used. Therefore, PEGylated KL4 peptide/siRNA complexes remained to be positively charged, which is suitable for cellular entry. […] In addition, PEG also provides steric hindrance between the interaction of KL4 and siRNA that weakens the binding, promoting the release of siRNA from the complexes after the addition of heparin."}, "[3]": {"experiment": "Circular dichroism, temperature ramping", "format": "physicochemical", "conditions": "6 to 94 °C, 5 mM Tris-HCl buffer, 0.1 mg/mL", "method": "KL4 and PEG6KL4 peptides were dissolved in 5 mM Tris-HCl buffer at a final concentration of 0.1 mg/mL in 0.1% (v/v) DMSO. PEG12KL4 and PEG24KL4 were dissolved in 5 mM Tris-HCl buffer at a final concentration of 0.1 mg/mL without DMSO. CD spectra were acquired on a Chirascan™ Spectrometer (Applied Photophysics, Leatherhead, UK). For temperature ramping experiment, far-UV CD spectra were obtained with the peptide solution incubated from 6° C. to 94° C. Spectra were recorded from 260 to 190 nm using a 0.5 mm path length and were processed using Chirascan software where a spectrum of the peptide free solution was subtracted and Savitzky-Gorlay smoothing applied."}, "[4]": {"experiment": "Solubility of peptides in water", "format": "physicochemical"}, "[5]": {"test_system": "A549 cells", "experiment": "Cellular uptake of siRNA by flow cytometry on A549 cells", "format": "cell-based, human", "conditions": "A549, 10:1 ratio, fluorescently labelled siRNA, 4 h", "method": "Flow cytometry was used to investigate the cellular uptake of peptide/siRNA complexes. A549 cells and Calu-3 cells were seeded in six-well plates at a density of 2.5×10^5 cells and 4×10^5 cells per well, respectively, one day before the experiment. The cells were transfected with peptide/siRNA complexes at 10:1 ratio (w/w) containing fluorescently labelled siRNA (150 nM) in Opti-MEM I reduced serum medium. The transfection medium was removed after 4 h of incubation, and the cells were washed with PBS once. The cells were trypsinized by 0.25% (w/v) trypsin-EDTA and suspended in culture medium. The extracellular fluorescence signal was quenched with 0.04% (w/v) trypan blue solution. After 2 min of incubation, the cells were washed with PBS thrice. The cells were resuspended in 500 μL of PBS and sieved with a sterile 40 μm cell strainer (BD Biosciences, CA, USA). The fluorescence intensity was analyzed by flow cytometry with PE/PI laser (585/42 nm) (BD FACSCantoII Analyzer, BD Biosciences, CA, USA). At least 10,000 single cells were analyzed for each sample."}, "[6]": {"test_system": "A549 cells", "experiment": "Cellular uptake study of mRNA (flow cytometry and confocal microscopy)", "format": "cell-based, human", "conditions": "10:1 ratio (w/w), cyanine-5 labelled mRNA, 4 h post-transfection, flow cytometry", "method": "The cellular uptake of the mRNA was studied by flow cytometry and confocal microscopy. For the flow cytometry study, A549 cells were seeded in 24-well plates at a density of 0.5×10^5 cells per well one day before the experiment. The cells were transfected with naked mRNA, KL4/mRNA and PEG12KL4/mRNA complexes at 10:1 ratio (w/w) in OptiMEM I reduced serum medium containing 1 μg of cyanine-5 labelled EGFP mRNA per well. After 4 h of incubation, the cells were washed and trypsinized. Cells from three separate wells of the same treatment were combined and suspended in culture medium. The extracellular florescent signal was quenched with 0.04% (w/v) trypan blue solution. After 2 min, the cells were washed, resuspended in 300 μL of PBS and sieved with a sterile 40 μm cell strainer (BD Biosciences, CA, USA). The fluorescence intensity was analyzed by flow cytometry (BD FACSCantoII Analyzer, BD Biosciences, CA, USA). At least 1×10^4 single cells were analyzed for each sample. For the confocal study, A549 cells were seeded in a 35 mm Mattek glass bottom culture dish (Mattek Corp. Ashland, MA, USA) at a density of 1×10^5 cells per well one day before imaging. Naked mRNA, KL4/mRNA and PEG12KL4/mRNA complexes at 10:1 ratio (w/w) were prepared in Opti-MEM I reduced serum medium with 2 μg of cyanine-5 labelled mRNA per dish. […]"}, "[7]": {"test_system": "siRNA", "experiment": "Fluorescence displacement assay of siRNA binding and heparin release", "conditions": "10:1 ratio, heparin titration", "method": "The siRNA binding affinity of the peptides was investigated by fluorescence displacement assay using negative control siRNA. The siRNA was added into 1× SYBR® Gold Tris-acetate-EDTA (TAE) buffer and incubated for 30 min at room temperature. The fluorescence intensity was quantified by fluorescence spectrophotometer (SpectraMax® M4, Molecular devices, LLC., CA, USA) at 495 nm excitation and 537 nm emission wavelengths. The peptides at concentration of 1 mg/mL were titrated to the siRNA/dye mixtures. The fluorescence intensity of siRNA/dye mixture in the presence of peptides was expressed as a percentage of that of the siRNA/dye mixture without peptides. The background fluorescence was subtracted from all measurements before analysis. Percentage change of fluorescence intensity was plotted against the weight ratio of peptides to siRNA upon titration. To further investigate the binding profile of the peptide/siRNA complexes, heparin was added to dissociate the complexes and release the siRNA. […] The heparin diluted in TAE buffer at concentration of 10 or 100 i.u./μL was titrated into the peptide/siRNA/dye mixture and the fluorescence intensity was measured as described above. Percentage change of fluorescence intensity was plotted against the amount of heparin upon titration. The data was fit to a four-parameter logistic sigmoidal curve and the EC50 and Hill slope were calculated."}, "[8]": {"test_system": "BEAS-2B cells", "experiment": "GAPDH siRNA transfection on BEAS-2B cells (Western blot)", "format": "cell-based, human", "conditions": "one-way ANOVA, Tukey, n.s. not significant, * p<0.05, ** p<0.01, *** p<0.001", "method": "as §1"}, "[9]": {"test_system": "Calu-3 cells", "experiment": "GAPDH siRNA transfection on Calu-3 cells (Western blot)", "format": "cell-based, human", "conditions": "one-way ANOVA, Tukey, n.s. not significant, * p<0.05, ** p<0.01, *** p<0.001", "method": "as §1"}}, "note": "Like-named read-outs stand apart in the source and are kept apart here. Non-standard residues stand in square brackets, D forms with d. Residues, ends and D or L forms follow the SMILES beside them. PEG24 = NCCOCCOCCOCCOCCOCCOCCOCCOCCOCCOCCOCCOCCOCCOCCOCCOCCOCCOCCOCCOCCOCCOCCOCCOCCC(=O)O", "data": [{"smiles": "CC(C)C[C@H](NC(=O)[C@H](CC(C)C)NC(=O)[C@H](CC(C)C)NC(=O)[C@H](CC(C)C)NC(=O)[C@H](CCCCN)NC(=O)[C@H](CC(C)C)NC(=O)[C@H](CC(C)C)NC(=O)[C@H](CC(C)C)NC(=O)[C@H](CC(C)C)NC(=O)[C@H](CCCCN)NC(=O)[C@H](CC(C)C)NC(=O)[C@H](CC(C)C)NC(=O)[C@H](CC(C)C)NC(=O)[C@H](CC(C)C)NC(=O)[C@H](CCCCN)NC(=O)[C@H](CC(C)C)NC(=O)[C@H](CC(C)C)NC(=O)[C@H](CC(C)C)NC(=O)[C@H](CC(C)C)NC(=O)[C@@H](N)CCCCN)C(=O)N[C@@H](CCCCN)C(N)=O", "note": "[KL4, reference compound] (H-KLLLLKLLLLKLLLLKLLLLK-NH2; N-terminus assumed)", "values": [{"measurement": "Comparison within the same peptide prepared at different peptide to siRNA ratios", "setting": "[1]; A549, one-way ANOVA, Tukey, n.s. not significant, * p<0.05, ** p<0.01, *** p<0.001", "value": "n.s."}, {"measurement": "charge ratio of peptide to siRNA", "setting": "[2]", "value": "6.1 to 1"}, {"measurement": "secondary structure at different temperatures (far-UV CD)", "setting": "[3]", "value": "the alpha-helical structure gradually turned to a beta-sheet conformation"}, {"measurement": "solubility", "setting": "[4]; water", "value": "< 1000", "unit": "µg/mL"}, {"measurement": "percentage of cells with siRNA uptake", "setting": "[5]", "value": "less than 20%"}, {"measurement": "percentage of cells with mRNA uptake", "setting": "[6]", "value": 15, "unit": "%"}]}, {"smiles": "CC(C)C[C@H](NC(=O)[C@H](CC(C)C)NC(=O)[C@H](CC(C)C)NC(=O)[C@H](CC(C)C)NC(=O)[C@H](CCCCN)NC(=O)[C@H](CC(C)C)NC(=O)[C@H](CC(C)C)NC(=O)[C@H](CC(C)C)NC(=O)[C@H](CC(C)C)NC(=O)[C@H](CCCCN)NC(=O)[C@H](CC(C)C)NC(=O)[C@H](CC(C)C)NC(=O)[C@H](CC(C)C)NC(=O)[C@H](CC(C)C)NC(=O)[C@H](CCCCN)NC(=O)[C@H](CC(C)C)NC(=O)[C@H](CC(C)C)NC(=O)[C@H](CC(C)C)NC(=O)[C@H](CC(C)C)NC(=O)[C@H](CCCCN)NC(=O)CCOCCOCCOCCOCCOCCOCCOCCOCCOCCOCCOCCOCCOCCOCCOCCOCCOCCOCCOCCOCCOCCOCCOCCOCCN)C(=O)N[C@@H](CCCCN)C(N)=O", "note": "[PEG24KL4] (H-[PEG24]KLLLLKLLLLKLLLLKLLLLK-NH2; N-terminus assumed)", "values": [{"measurement": "siRNA transfection efficiency among the four peptides at different amounts of siRNA", "setting": "[1]; A549, 10:1 ratio, 6 to 100 nM siRNA, 72 h", "value": "lowest transfection efficiency"}, {"measurement": "binding affinity between peptide and siRNA", "setting": "[7]", "value": "weakest"}, {"measurement": "charge ratio of peptide to siRNA", "setting": "[2]", "value": "4.2 to 1"}, {"measurement": "secondary structure at different temperatures (far-UV CD)", "setting": "[3]", "value": "adopted an alpha-helical structure at all tested temperatures"}, {"measurement": "solubility", "setting": "[4]", "value": "> 2000", "unit": "µg/mL"}, {"measurement": "Comparison within the same peptide prepared at different peptide to siRNA ratios", "setting": "[8]", "value": "5:1 vs 20:1 *"}, {"measurement": "Comparison within the same peptide prepared at different peptide to siRNA ratios", "setting": "[9]", "value": "n.s."}]}]}
